The values below come from patent publication US5171838A, “Leu3a binding peptides” (Kureha Kagaku Kogyo Kabushiki Kaisha, priority 1990, dated 1992).

This assay has as its target Leu3a binding to CD4. The assay can be described thus: Leu3a competitive immunoassay (inhibition of biotinylated Leu3a binding to immobilized CD4 membrane fraction). The settings on record: for IC50 /µg/well: CD4 fragment peptides, membrane fraction of MOLT4 or CCRF-CEM cells as CD4 source, unit of the source corrected; for IC50 /µg/well / IC50 μg/well: peptide amount per well inhibiting Leu3a binding by 50%; for inhibition of Leu3a binding to CD4 (in words): CD4 from MOLT4 cells; for IC50 μg/well: D-amino acid-substituted CD4 (49-63). Further details: species or system human. As to the method: Then, aliquots of solutions containing labeled Leu3a and the peptide to be tested are added. […] After a suitable period of incubation, the solid matrix is washed to remove unbound components and the labeled Leu3a bound is quantitated. In general, any of a number of conventionally labeled Leu3a preparations may be used, including radioactively labeled or enzyme-labeled Leu3a. However, a biotinylated Leu3a used in conjunction with an appropriate secondary reagent such as a complex of avidin-biotin-horseradish peroxidase is preferred. This secondary reagent specifically binds to the biotinylated Leu3a. A chromogenic substrate is added to the complex, enabling one to measure the amount of Leu3a bound as a function of absorbance.
Two million cells, suspended in 2 ml of 40 mM HEPES (4-(2-hydroxyethyl)-1-piperazine ethanesulfonic acid) buffer (pH 7.4) containing 1 mM EGTA (ethylene-bis-(oxyethylene-nitrilo)-tetraacetic acid), 1 mM PMSF (phenylmethylsulfonylfluoride), 1,000 KIU/ml aprotinin and 150 mM sodium chloride, were lysed by two (2) successive 15 second cycles of ultrasonication and centrifuged at 100×g for five (5) minutes. The supernatant was collected and centrifuged at 15,000×g for ten minutes. The precipitate was resuspended in 1 ml of 50 mM sodium bicarbonate buffer, ultrasonicated by three (3) successive 15 second cycles, and mixed with 1 ml of 50 mM sodium bicarbonate buffer to obtain the cellular membrane suspension. Then, 50 μl of the membrane suspension was added to each well of a 96 well microtiter plate. After overnight incubation at 4° C., the buffer was removed and the adsorbed membrane fraction was fixed by addition of 50 μl of 10 mM PBS (phosphate buffered saline) containing 0.2% glutaraldehyde. After three (3) minutes at room temperature, the glutaraldehyde buffer was removed and the plates were washed five times with PBS. Then, 350 μl of PBS containing 2% bovine serum albumin (BSA) was added to each well to block subsequently added proteins from binding non-specifically to the plastic. After blocking at room temperature for one (1) hour, the blocking buffer was removed and the plates were washed five times with 0.2% BSA solution in PBS (BPBS).
The following dilutions of each peptide in BPBS--were prepared: 10 μg/ml; 20 μg/ml; 40 μg/ml; 100 μg/ml; 200 μg/ml, 400 μg/ml; 1 mg/ml and 2 mg/ml. A 50 μl aliquot of each dilution of a selected peptide was added to a well of a microtiter plate, together with 25 μl of a solution containing 600 ng/ml biotin-conjugated Leu3a (Becton Dickinson Immunocytometry Systems) in BPBS so that each well contained either 0.5, 1, 2, 5, 10, 20, 50 or 100 μg of peptide in a total volume of 75 μl. After overnight incubation at 4° C., the reaction mixture was removed and the plates were washed eight times with BPBS containing 0.05% Tween 20.
A solution containing a complex of avidin DH (reagent A) and biotinylated horseradish peroxidase H (reagent B) was prepared by adding 90 μl of reagent A and 90 μl of reagent B (ABC Kit:Vector Laboratories, Inc.) to 5 ml of BPBS containing 0.05% Tween 20.
Then, 50 μl of the enzyme complex solution was added to each well, and the plates were incubated at room temperature for four (4) hours. The reaction buffer was removed and the plates were washed eight times with 20 mM imidazole buffered saline containing 0.02% Tween 20. Equal volumes of substrate solution A (ABTS; 2,2'-azino-di[3-ethyl-benzthiazoline sulfonate]) and substrate solution B (hydrogen peroxide) (Hybri-Clonal™ EIA Screening Kit: Kirkegaard & Perry Laboratories, Inc.) were mixed, and 100 μl of the substrate solution mixture was added to each well. After incubation at room temperature for one (1) hour, absorbance at 405 nm was measured by microplate reader model MPR-A4 (Tosoh Co., Ltd.).
Leu3a binding, as measured by absorbance, was calculated and plotted against peptide concentration to obtain a competitive inhibition curve.

Entries after “also recorded” stand apart in the source; their conditions may differ. Where a SMILES comes first, the peptide text is derived from it. Where no end group is shown, it is not given here. [ ]: non-standard residue; d: D form.

In turn, KNSNQIKILGNQGSFLTKG [CD4 (29-47)] returned an IC50 /µg/well of 500 µg/well. For KLNDRADSRRSLWD [CD4 (50-63)], the IC50 /µg/well is more than 500 µg/well and the “inhibition of Leu3a binding to CD4 (in words)” value (“inhibition of Leu3a binding” for short) is “very weak inhibiting activity”. Turning to `CC(C)C[C@H](NC(=O)[C@H](CO)NC(=O)[C@@H](CCCNC(=N)N)NC(=O)[C@H](CCCNC(=N)N)NC(=O)[C@H](CO)NC(=O)[C@H](CC(=O)O)NC(=O)[C@@H](C)NC(=O)[C@H](CCCNC(=N)N)NC(=O)[C@H](CC(=O)O)NC(=O)[C@H](CC(N)=O)NC(=O)[C@H](CC(C)C)NC(=O)[C@@H](CCCCN)NC(=O)[C@@H](N)CO)C(=O)N[C@@H](Cc1c[nH]c2ccccc12)C(=O)N[C@@H](CC(=O)O)C(=O)O` [[D-Lys^50,D-Ala^55,D-Arg^59]-CD4(49-63)] (H-S[dK]LNDR[dA]DSR[dR]SLWD-OH), the “inhibition of Leu3a binding” value is recorded as “exhibited inhibitory activity” and the “IC50 μg/well” value came to 25 μg/well. As to `CC(C)C[C@H](NC(=O)[C@H](CO)NC(=O)[C@H](CCCNC(=N)N)NC(=O)[C@H](CCCNC(=N)N)NC(=O)[C@H](CO)NC(=O)[C@H](CC(=O)O)NC(=O)[C@@H](C)NC(=O)[C@H](CCCNC(=N)N)NC(=O)[C@H](CC(=O)O)NC(=O)[C@H](CC(N)=O)NC(=O)[C@H](CC(C)C)NC(=O)[C@H](CCCCN)NC(=O)[C@@H](N)CO)C(=O)N[C@@H](Cc1c[nH]c2ccccc12)C(=O)N[C@@H](CC(=O)O)C(=O)O` [[D-Ala^55]-CD4(49-63)] (H-SKLNDR[dA]DSRRSLWD-OH), the “IC50 μg/well” value came out at 32 μg/well. On the same count and under the same terms, in the case of `CC(C)C[C@H](NC(=O)[C@@H](CCCCN)NC(=O)[C@@H](N)CO)C(=O)N[C@@H](CC(N)=O)C(=O)N[C@@H](CC(=O)O)C(=O)N[C@@H](CCCNC(=N)N)C(=O)N[C@H](C)C(=O)N[C@@H](CC(=O)O)C(=O)N[C@@H](CO)C(=O)N[C@@H](CCCNC(=N)N)C(=O)N[C@@H](CCCNC(=N)N)C(=O)N[C@@H](CO)C(=O)N[C@H](CC(C)C)C(=O)N[C@@H](Cc1c[nH]c2ccccc12)C(=O)N[C@@H](CC(=O)O)C(=O)O` [[D-Lys^50,D-Ala^55,D-Leu^61]-CD4(49-63)] (H-S[dK]LNDR[dA]DSRRS[dL]WD-OH) it was 22 μg/well; in that of `CC(C)C[C@H](NC(=O)[C@H](CO)NC(=O)[C@H](CCCNC(=N)N)NC(=O)[C@H](CCCNC(=N)N)NC(=O)[C@@H](CO)NC(=O)[C@H](CC(=O)O)NC(=O)[C@@H](C)NC(=O)[C@H](CCCNC(=N)N)NC(=O)[C@H](CC(=O)O)NC(=O)[C@H](CC(N)=O)NC(=O)[C@H](CC(C)C)NC(=O)[C@H](CCCCN)NC(=O)[C@@H](N)CO)C(=O)N[C@@H](Cc1c[nH]c2ccccc12)C(=O)N[C@@H](CC(=O)O)C(=O)O` [[D-Ala^55,D-Ser^57]-CD4(49-63)] (H-SKLNDR[dA]D[dS]RRSLWD-OH), 10 μg/well. On to `CC(C)C[C@H](NC(=O)[C@H](CO)NC(=O)[C@H](CCCNC(=N)N)NC(=O)[C@H](CCCNC(=N)N)NC(=O)[C@H](CO)NC(=O)[C@H](CC(=O)O)NC(=O)[C@@H](C)NC(=O)[C@H](CCCNC(=N)N)NC(=O)[C@H](CC(=O)O)NC(=O)[C@@H](CC(N)=O)NC(=O)[C@H](CC(C)C)NC(=O)[C@H](CCCCN)NC(=O)[C@@H](N)CO)C(=O)N[C@@H](Cc1c[nH]c2ccccc12)C(=O)N[C@@H](CC(=O)O)C(=O)O` [[D-Asn^52,D-Ala^55]-CD4(49-63)] (H-SKL[dN]DR[dA]DSRRSLWD-OH), for which the “IC50 μg/well” value was 60 μg/well. Still for that read-out and setting: then `CC(C)C[C@H](NC(=O)[C@H](CCCCN)NC(=O)[C@@H](N)CO)C(=O)N[C@@H](CC(N)=O)C(=O)N[C@@H](CC(=O)O)C(=O)N[C@@H](CCCNC(=N)N)C(=O)N[C@H](C)C(=O)N[C@@H](CC(=O)O)C(=O)N[C@@H](CO)C(=O)N[C@@H](CCCNC(=N)N)C(=O)N[C@H](CCCNC(=N)N)C(=O)N[C@@H](CO)C(=O)N[C@@H](CC(C)C)C(=O)N[C@@H](Cc1c[nH]c2ccccc12)C(=O)N[C@@H](CC(=O)O)C(=O)O` [[D-Ala^55,D-Arg^59]-CD4(49-63)] (H-SKLNDR[dA]DSR[dR]SLWD-OH), with 23 μg/well. As to SKLNDRADSRRSLW [CD4 (49-62)], the IC50 /µg/well is more than 500 µg/well and the “inhibition of Leu3a binding” value is on record as “very weak inhibiting activity”. Take “SKLNDRADSRRSLWD [CD4 (49-63), ser-lys-leu-asn-asp-arg-ala-asp-ser-arg-arg-ser-leu-trp-asp]”: the IC50 /µg/well was 10 µg/well and the “inhibition of Leu3a binding” value was “strongly inhibited; also recorded: exceptionally strong inhibitory activity”. As to `CC(C)C[C@H](NC(=O)[C@H](CO)NC(=O)[C@H](CCCNC(=N)N)NC(=O)[C@H](CCCNC(=N)N)NC(=O)[C@H](CO)NC(=O)[C@H](CC(=O)O)NC(=O)[C@@H](C)NC(=O)[C@H](CCCNC(=N)N)NC(=O)[C@H](CC(=O)O)NC(=O)[C@H](CC(N)=O)NC(=O)[C@H](CC(C)C)NC(=O)[C@@H](CCCCN)NC(=O)[C@@H](N)CO)C(=O)N[C@@H](Cc1c[nH]c2ccccc12)C(=O)N[C@@H](CC(=O)O)C(=O)O` [[D-Lys^50,D-Ala^55]-CD4(49-63)] (H-S[dK]LNDR[dA]DSRRSLWD-OH), the “IC50 μg/well” value worked out at 36 μg/well. The same measure, in the same setting: in the case of `CC(C)C[C@H](NC(=O)[C@H](CO)NC(=O)[C@H](CCCNC(=N)N)NC(=O)[C@@H](CCCNC(=N)N)NC(=O)[C@H](CO)NC(=O)[C@H](CC(=O)O)NC(=O)[C@@H](C)NC(=O)[C@H](CCCNC(=N)N)NC(=O)[C@H](CC(=O)O)NC(=O)[C@H](CC(N)=O)NC(=O)[C@H](CC(C)C)NC(=O)[C@H](CCCCN)NC(=O)[C@@H](N)CO)C(=O)N[C@@H](Cc1c[nH]c2ccccc12)C(=O)N[C@@H](CC(=O)O)C(=O)O` [[D-Ala^55,D-Arg^58]-CD4(49-63)] (H-SKLNDR[dA]DS[dR]RSLWD-OH) it was 36 μg/well.

As for `CC(C)C[C@H](NC(=O)[C@H](CO)NC(=O)[C@H](CCCNC(=N)N)NC(=O)[C@H](CCCNC(=N)N)NC(=O)[C@H](CO)NC(=O)[C@@H](CC(=O)O)NC(=O)[C@H](C)NC(=O)[C@H](CCCNC(=N)N)NC(=O)[C@H](CC(=O)O)NC(=O)[C@H](CC(N)=O)NC(=O)[C@H](CC(C)C)NC(=O)[C@H](CCCCN)NC(=O)[C@@H](N)CO)C(=O)N[C@@H](Cc1c[nH]c2ccccc12)C(=O)N[C@@H](CC(=O)O)C(=O)O` [[D-Asp^56]-CD4(49-63)] (H-SKLNDRA[dD]SRRSLWD-OH), the “IC50 μg/well” value is 56 μg/well.
